# Patent US10597405B2, “Chemical compounds” (ASTRAZENECA AB, priority 2017, dated 2020)
# Target: T1, KRasG12C (Homo sapiens, UniProt P01116, G12C)
# T1 construct: biotin (biotinylated); made in house
# Test: KRasG12C functional assay (HTRF nucleotide exchange / Raf RBD binding)
# Format: biochemical
# Settings: GDP loaded biotinylated KRasG12C, samples incubated 4 hrs, FRET readout; single experiment or average of two or more
# Experimental: KRasG12C Functional Assay
# All enzyme and substrate solutions were prepared in assay buffer containing 20 mM HEPES (pH 7.5), 5 mM MgCl2, 150 mM NaCl, and 0.01% Tween 20. […] In a separate mix 20 nM GST-Raf Ras binding domain (GST-Raf RBD, purified in house) and 4 μg/ml anti-GST XL665 antibody (Cisbio) was prepared in assay buffer containing 50 mM Potassium Fluoride and 0.05 mg/ml BSA and equilibrated for 4 hours before adding 0.6 μM Guanosine 5′-[γ-thio]triphosphate (GTPγS, Sigma) and 0.08 μM SOS (purified in house). 5 μl of the GST-RAF RBD mix was then dispensed into each well of the assay plate. […] This is detected simultaneously via the specific binding interaction between active GTPγS KRas^G12C with GST-Raf RBD which brings the europium and XL665 into close proximity enabling an increased FRET signal to be detected on a Pherastar (BMG) plate reader equipped with the HTRF filter module. […] IC50 values were calculated from normalised dose-response response FRET data curve fitted in Genedata screener (Basel, Switzerland).
# T1 sequence (P01116 1-188 isoform P01116-2 G12C): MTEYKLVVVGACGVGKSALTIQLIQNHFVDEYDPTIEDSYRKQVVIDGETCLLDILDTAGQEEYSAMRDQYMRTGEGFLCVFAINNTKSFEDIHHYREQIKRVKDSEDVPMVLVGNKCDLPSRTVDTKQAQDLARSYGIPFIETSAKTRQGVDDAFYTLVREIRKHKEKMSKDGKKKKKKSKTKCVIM
row,IC50,Structure (SMILES)
1,7.14 µM,"C=CC(=O)N1CCN2c3c(cnc4c(F)c(-c5c(C)ccc6[nH]cnc56)c(Cl)cc34)OC[C@H]2C1 (single isomer, unassigned) [Compound 78]"
2,0.141 µM,"C=CC(=O)N1CCN2c3c(cnc4c(Cl)c(-c5c(O)cccc5F)c(F)cc34)N(C)C(=O)[C@H]2C1 (single isomer, unassigned) [Compound 79]"
3,14.7 µM,"C=CC(=O)N1CCN2c3c(cnc4c(Cl)c(-c5c(O)cccc5F)c(F)cc34)N(C)C(=O)[C@H]2C1 (single isomer, unassigned) [Compound 80]"
4,2.4 µM,"C=CC(=O)N1CCN2c3c(cnc4c(F)c(-c5c(C)ccc6[nH]c(=O)n(C)c56)c(Cl)cc34)OC[C@H]2C1 (single isomer, unassigned) [Compound 84]"
5,0.01 µM,"C=CC(=O)N1CCN2c3c(cnc4c(F)c(-c5c(C)ccc6[nH]c(=O)n(C)c56)c(Cl)cc34)OC[C@H]2C1 (single isomer, unassigned) [Compound 85]"
6,8.6 µM,"C=CC(=O)N1CCN2c3c(cnc4c(F)c(-c5c(C)ccc6c5C(=O)NC6)c(Cl)cc34)OC[C@H]2C1 (single isomer, unassigned) [Compound 87]"
7,3.6 µM,"C=CC(=O)N1CCN2c3c(cnc4c(F)c(-c5c(O)cccc5F)c(Cl)cc34)NC(=O)[C@H]2C1 (single isomer, unassigned) [Compound 89]"
8,35.2 µM,"C=CC(=O)N1CCN2c3c(cnc4c(C)c(-c5c(O)cccc5F)c(C)nc34)N(C)C(=O)[C@H]2C1 (single isomer, unassigned) [Compound 91]"
9,5.8 µM,"C=CC(=O)N1CCN2c3c(cnc4cc(-c5c(C)ccc6[nH]ncc56)c(Cl)cc34)OC[C@@H]2C1 (single isomer, unassigned) [Example 5]"
10,0.662 µM,"C=CC(=O)N1CCN2c3c(cnc4cc(-c5c(C)ccc6[nH]ncc56)c(Cl)cc34)OC[C@@H]2C1 (single isomer, unassigned) [Example 6]"
11,8.5 µM,"C=CC(=O)N1CCN2c3c(cnc4c(F)c(-c5c(O)cccc5F)c(Cl)cc34)OC[C@H]2C1 (single isomer, unassigned) [Example 8]"
12,0.077 µM,"C=CC(=O)N1CCN2c3c(cnc4c(F)c(-c5c(O)cccc5F)c(F)cc34)N(C)C(=O)[C@H]2C1 [Compound 42, (4aR)-3-Acryloyl-9,11-difluoro-10-(2-fluoro-6-hydroxyphenyl)-6-methyl-2,3,4,4a-tetrahydro-1H-pyrazino[1′,2′:4,5]pyrazino[2,3-c]quinolin-5(6H)-one]"
13,0.202 µM,"C=CC(=O)N1CCN2c3c(cnc4cc(-c5c(O)cccc5F)c(Cl)c(F)c34)N(C)C(=O)[C@H]2C1 [Compound 59, (4aR)-11-Chloro-12-fluoro-10-(2-fluoro-6-hydroxyphenyl)-6-methyl-3-(prop-2-enoyl)-2,3,4,4a-tetrahydro-1H-pyrazino[1′,2′:4,5]pyrazino[2,3-c]quinolin-5(6H)-one]"
14,0.501 µM,"C=CC(=O)N1CCN2c3c(cnc4cc(-c5c(O)cccc5F)c(Cl)c(Cl)c34)N(C)C(=O)[C@H]2C1 [Compound 60, (4aR)-11,12-Dichloro-10-(2-fluoro-6-hydroxyphenyl)-6-methyl-3-(prop-2-enoyl)-2,3,4,4a-tetrahydro-1H-pyrazino[1′,2′:4,5]pyrazino[2,3-c]quinolin-5(6H)-one]"
15,0.333 µM,"C=CC(=O)N1CCN2c3c(cnc4cc(-c5c(O)cccc5F)c(Cl)cc34)N(CC)C(=O)[C@H]2C1 [Compound 90, (4aR)-11-Chloro-6-ethyl-10-(2-fluoro-6-hydroxyphenyl)-3-(prop-2-enoyl)-2,3,4,4a-tetrahydro-1H-pyrazino[1′,2′:4,5]pyrazino[2,3-c]quinolin-5(6H)-one]"

row,Structure (SMILES),IC50
1,"C=CC(=O)N1CCN2c3c(cnc4cc(-c5c(C)ccc6[nH]ncc56)c(Cl)cc34)OC[C@H]2C1 (single isomer, unassigned) [Example 4]",1.7 µM
2,"C=CC(=O)N1CCN2c3c(cnc4cc(-c5c(O)cccc5F)c(Cl)cc34)OC[C@H]2C1 (single isomer, unassigned) [Mixture of 1 & 2]",0.211 µM
